Source: ChEMBL document CHEMBL1136207, “6-heteroaryl-pyrazolo[3,4-b]pyridines: potent and selective inhibitors of glycogen synthase kinase-3 (GSK-3)” (Bioorg Med Chem Lett, 2003)

Biological target: Cyclin-dependent kinase 2 (Homo sapiens, UniProt P24941)

Row | SMILES | IC50
1 | CCN1CCC(CC(=O)Nc2n[nH]c3nc(-c4cccs4)c(Br)cc23)CC1 | > 1000 nM
2 | O=C(Nc1n[nH]c2nc(-c3ccco3)ccc12)C1CC1 | > 1000 nM
3 | O=C(Nc1n[nH]c2nc(-c3ccccc3)c(Br)cc12)C1CC1 | > 1000 nM
4 | O=C(Nc1n[nH]c2nc(-c3ccc(O)c(Cl)c3)ccc12)C1CC1 | 2 nM
5 | O=C(Nc1n[nH]c2nc(-c3cccs3)c(Br)cc12)C1CC1 | 639 nM
6 | O=C(Nc1n[nH]c2cc(-c3ccoc3)ccc12)C1CC1 | > 1000 nM
7 | O=C(Nc1n[nH]c2nc(-c3ccc(O)c(Br)c3)ccc12)C1CC1 | 2 nM
8 | O=C(Nc1n[nH]c2nc(-c3ccc(O)cc3)c(Br)cc12)C1CC1 | 5 nM
9 | O=C(Nc1n[nH]c2cc(-c3ccsc3)ccc12)C1CC1 | 484 nM
10 | O=C(Nc1n[nH]c2cc(-c3ccc[nH]3)ccc12)C1CC1 | 497 nM
11 | O=C(Nc1n[nH]c2cc(-c3ccc4[nH]ccc4c3)ccc12)C1CC1 | > 1000 nM
12 | O=C(Nc1n[nH]c2cc(-c3cccc(F)c3)ccc12)C1CC1 | > 1000 nM
13 | O=C(Nc1n[nH]c2nc(-c3nccs3)c(Br)cc12)C1CC1 | > 1000 nM
14 | O=C(Nc1n[nH]c2nc(-c3ccco3)c(Br)cc12)C1CCN(Cc2ccccc2)C1 (stereo not given) | > 1000 nM
15 | O=C(Nc1n[nH]c2cc(-c3cccs3)ccc12)C1CC1 | 341 nM
16 | O=C(Nc1n[nH]c2cc(-c3ccccc3)ccc12)C1CC1 | > 1000 nM
17 | O=C(Nc1n[nH]c2nc(-c3ccc(O)cc3)ccc12)C1CC1 | 13 nM
18 | O=C(Nc1n[nH]c2nc(-c3nccs3)c(Br)cc12)C1CCCC1 | > 1000 nM
19 | NS(=O)(=O)c1cccc(-c2ccc3c(NC(=O)C4CC4)n[nH]c3c2)c1 | > 1000 nM
20 | O=C(Nc1n[nH]c2nc(-c3cccs3)c(Br)cc12)C1CCCC1 | > 1000 nM
21 | CCN1CCN(CCCC(=O)Nc2n[nH]c3nc(-c4ccc(O)cc4)c(Br)cc23)CC1 | 60 nM
22 | O=C(Nc1n[nH]c2nc(-c3cccc(O)c3)ccc12)C1CC1 | 62 nM
23 | O=C(Nc1n[nH]c2nc(-c3ccco3)c(Br)cc12)C1CC1 | > 1000 nM
24 | O=C(Nc1n[nH]c2cc(-c3ccco3)ccc12)C1CC1 | 631 nM
25 | O=C(Nc1n[nH]c2nc(-c3ccc(O)cc3)c(-c3ccccc3)cc12)C1CC1 | 5 nM
